Laboratory results taken from PubChem BioAssay AID977609 (Broad Institute, 2014).
Active and inactive are the calls of the source.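 Rule for the calls: active = a rise in signal, meaning less cAMP, whose fitted curve reaches 40% at or below the top valid tested dose; inconclusive = flat fit between 30% and 70%, or a poor fit; inactive = the rest.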

Tested on: Drosophila melanogaster bursicon receptor LGR2 (rickets)
Test: LGR2 antagonists blocking bursicon cAMP, dose response, orthogonal assay for LGR2 antagonist project, cell-based, HEK293 transfected, TR-FRET cAMP, dry powder (AID 977609)
Settings: bursicon-stimulated cAMP, Lance TR-FRET; for inhibition of cAMP: at 50 µM (top of the series)

In the case of `CC(=O)Nc1ccc2c(c1)C(=O)N([C@H](C)CO)C[C@H](C)[C@H](CN(C)C(=O)Nc1ccc(F)cc1)OCCCC[C@H](C)O2`, the AC40 is reported as > 50000 nM (inactive).

For `C[C@H](CO)N1C[C@H](C)[C@H](CN(C)C(=O)Nc2ccc3ccccc3c2)OCCCC[C@H](C)Oc2ccc(NC(=O)C3CCCCC3)cc2C1=O`, the AC40 was 219 nM.

With `C[C@@H]1CCCCO[C@H](CN(C)C(=O)Nc2cccc3ccccc23)[C@H](C)CN([C@@H](C)CO)C(=O)c2cc(NC(=O)C3CCCCC3)ccc2O1` the inhibition of cAMP was 16% (inactive).

`C[C@H]1CCCCO[C@@H](CN(C)C(=O)Nc2ccccc2)[C@@H](C)CN([C@@H](C)CO)C(=O)c2cc(NC(=O)NC3CCCCC3)ccc2O1` gave an AC40 of 3580 nM.

For `C[C@@H]1CCCCO[C@@H](CN(C)C(=O)Nc2cccc3ccccc23)[C@@H](C)CN([C@H](C)CO)C(=O)c2cc(NC(=O)C3CCCCC3)ccc2O1`, the inhibition of cAMP was -2.89% (inactive).

`C[C@H](CO)N1C[C@H](C)[C@@H](CN(C)C(=O)Nc2cccc3ccccc23)OCCCC[C@H](C)Oc2ccc(NC(=O)C3CCCCC3)cc2C1=O` was tested, and the AC40 was > 50000 nM (inactive).

In the case of `C[C@@H]1CN([C@@H](C)CO)C(=O)c2cc(NC(=O)C3CCCCC3)ccc2O[C@@H](C)CCCCO[C@H]1CN(C)C(=O)Nc1cccc2ccccc12`, the AC40 is reported as > 50000 nM (inactive).

`C[C@H]1CCCCO[C@@H](CN(C)C(=O)Nc2ccc3c(c2)OCO3)[C@@H](C)CN([C@@H](C)CO)C(=O)c2cc(NC(=O)NC3CCCCC3)ccc2O1` was tested, and the AC40 was 3790 nM.

`C[C@H](CO)N1C[C@H](C)[C@H](CN(C)C(=O)Nc2ccc(C(F)(F)F)cc2)OCCCC[C@H](C)Oc2ccc(NC(=O)NC3CCCCC3)cc2C1=O` showed an AC40 of 2710 nM.

`COc1ccc(S(=O)(=O)N(C)C[C@@H]2OCCCC[C@H](C)Oc3ccc(NS(=O)(=O)c4ccc(F)cc4)cc3C(=O)N([C@@H](C)CO)C[C@@H]2C)cc1` was tested, and the AC40 was > 50000 nM (inactive).

Compound `C[C@H](CO)N1C[C@H](C)[C@H](CN(C)C(=O)Nc2cccc3ccccc23)OCCCC[C@H](C)Oc2ccc(NC(=O)c3ccccc3)cc2C1=O` has an AC40 of 2490 nM.

In the case of `C[C@H]1CCCCO[C@@H](CN(C)S(=O)(=O)c2ccc(Cl)cc2)[C@@H](C)CN([C@@H](C)CO)C(=O)c2cc(NC(=O)NC3CCCCC3)ccc2O1`, the AC40 is reported as > 50000 nM (inactive).

For `C[C@H](CO)N1C[C@H](C)[C@H](CN(C)C(=O)Nc2cccc(F)c2)OCCCC[C@H](C)Oc2ccc(NC(=O)C3CCCCC3)cc2C1=O`, the AC40 was 858 nM.

`C[C@@H]1CCCCO[C@H](CN(C)C(=O)Nc2cccc3ccccc23)[C@H](C)CN([C@H](C)CO)C(=O)c2cc(NC(=O)C3CCCCC3)ccc2O1` was tested, and the AC40 was > 50000 nM (inactive).

For `C[C@@H]1CCCCO[C@@H](CN(C)C(=O)Nc2cccc3ccccc23)[C@@H](C)CN([C@@H](C)CO)C(=O)c2cc(NC(=O)C3CCCCC3)ccc2O1`, the AC40 was > 50000 nM (inactive).

`C[C@H](CO)N1C[C@H](C)[C@H](CN(C)C(=O)Nc2ccccc2)OCCCC[C@H](C)Oc2ccc(NC(=O)CCC(F)(F)F)cc2C1=O` showed an AC40 of 1530 nM.

`C[C@H](CO)N1C[C@H](C)[C@H](CN(C)C(=O)Nc2ccc(Cl)cc2)OCCCC[C@H](C)Oc2ccc(NC(=O)C3CCCCC3)cc2C1=O` showed an AC40 of 853 nM.

For `C[C@H](CO)N1C[C@H](C)[C@H](CN(C)C(=O)Nc2cccc3ccccc23)OCCCC[C@H](C)Oc2ccc(NC(=O)C3CCCCC3)cc2C1=O`, the AC40 was 129 nM.

`COc1ccc(NC(=O)N(C)C[C@@H]2OCCCC[C@H](C)Oc3ccc(NC(=O)C4CCCCC4)cc3C(=O)N([C@H](C)CO)C[C@@H]2C)cc1` gave an AC40 of 1480 nM.

`C[C@H](CO)N1C[C@H](C)[C@H](CN(C)C(=O)Nc2ccc(F)cc2)OCCCC[C@H](C)Oc2ccc(NC(=O)Nc3ccc(F)cc3)cc2C1=O` gave an AC40 of 4690 nM.

Compound `C[C@H]1CCCCO[C@@H](CN(C)C(=O)Nc2ccc(C(F)(F)F)cc2)[C@@H](C)CN([C@@H](C)CO)C(=O)c2cc(NC(=O)CCC(F)(F)F)ccc2O1` has an AC40 of 2160 nM.

`C[C@H](CO)N1C[C@H](C)[C@H](CN(C)C(=O)Nc2ccccc2)OCCCC[C@H](C)Oc2ccc(NC(=O)C3CCCCC3)cc2C1=O` was tested, and the AC40 was 736 nM.

In the case of `C[C@H](CO)N1C[C@H](C)[C@H](CN(C)C(=O)Nc2ccccc2)OCCCC[C@H](C)Oc2ccc(NC(=O)Nc3ccc4c(c3)OCO4)cc2C1=O`, the AC40 is reported as 7540 nM.

With `C[C@H](CO)N1C[C@H](C)[C@H](CN(C)C(=O)Nc2ccc3c(c2)OCO3)OCCCC[C@H](C)Oc2ccc(NC(=O)C3CCCCC3)cc2C1=O` the AC40 was 837 nM.

With `C[C@H](CO)N1C[C@H](C)[C@H](CN(C)C(=O)Nc2ccc(F)cc2)OCCCC[C@H](C)Oc2ccc(NC(=O)C3CCCCCC3)cc2C1=O` the AC40 was 248 nM.

`C[C@H](CO)N1C[C@H](C)[C@H](CN(C)C(=O)Nc2ccccc2)OCCCC[C@H](C)Oc2ccc(NC(=O)Nc3ccccc3)cc2C1=O` showed an AC40 of 5860 nM.

With `C[C@@H]1CCCCO[C@@H](CN(C)C(=O)Nc2cccc3ccccc23)[C@H](C)CN([C@@H](C)CO)C(=O)c2cc(NC(=O)C3CCCCC3)ccc2O1` the AC40 was > 50000 nM (inactive).

`C[C@H](CO)N1C[C@H](C)[C@H](CN(C)C(=O)Nc2ccc(F)cc2)OCCCC[C@H](C)Oc2ccc(NC(=O)NC3CCCCC3)cc2C1=O` showed an AC40 of 3910 nM.

`C[C@@H]1CCCCO[C@H](CN(C)C(=O)Nc2cccc3ccccc23)[C@@H](C)CN([C@H](C)CO)C(=O)c2cc(NC(=O)C3CCCCC3)ccc2O1` was tested, and the AC40 was > 50000 nM (inactive).

`C[C@H](CO)N1C[C@H](C)[C@H](CN(C)C(=O)Nc2ccc3c(c2)OCO3)OCCCC[C@H](C)Oc2ccc(NC(=O)NC3CCCCC3)cc2C1=O` was tested, and the AC40 was 5490 nM.

Work on `C[C@H](CO)N1C[C@H](C)[C@H](CN(C)C(=O)Nc2ccc(F)cc2)OCCCC[C@H](C)Oc2ccc(NC(=O)Nc3ccccc3)cc2C1=O` yielded an AC40 of 2890 nM.

For `C[C@H](CO)N1C[C@H](C)[C@H](CN(C)C(=O)Nc2ccc(F)cc2)OCCCC[C@H](C)Oc2ccc(NC(=O)C3CCOCC3)cc2C1=O`, the AC40 was 25000 nM.

`C[C@H](CO)N1C[C@H](C)[C@H](CN(C)C(=O)Nc2ccccc2F)OCCCC[C@H](C)Oc2ccc(NC(=O)C3CCCCC3)cc2C1=O` showed an AC40 of 515 nM.

`C[C@H](CO)N1C[C@H](C)[C@H](CN(C)C(=O)Nc2cccc3ccccc23)OCCCC[C@H](C)Oc2ccc(NC(=O)NC3CCCCC3)cc2C1=O` was tested, and the AC40 was 1650 nM.

For `Cc1ccc(NC(=O)N(C)C[C@@H]2OCCCC[C@H](C)Oc3ccc(NC(=O)C4CCCCC4)cc3C(=O)N([C@H](C)CO)C[C@@H]2C)cc1`, the AC40 was 1050 nM.

For `C[C@@H]1CCCCO[C@H](CN(C)C(=O)Nc2cccc3ccccc23)[C@@H](C)CN([C@@H](C)CO)C(=O)c2cc(NC(=O)C3CCCCC3)ccc2O1`, the AC40 was > 50000 nM (inactive).

`C[C@H]1CCCCO[C@@H](CN(C)C(=O)Nc2ccc(F)cc2)[C@@H](C)CN([C@@H](C)CO)C(=O)c2cc(NC(=O)C3CCCCC3)ccc2O1` showed an AC40 of 1380 nM.

`C[C@H](CO)N1C[C@H](C)[C@H](CN(C)C(=O)Nc2ccccc2)OCCCC[C@H](C)Oc2ccc(NC(=O)NC3CCCCC3)cc2C1=O` showed an AC40 of 3220 nM.

For `C[C@H](CO)N1C[C@H](C)[C@H](CN(C)C(=O)Nc2ccc(F)cc2)OCCCC[C@H](C)Oc2ccc(NC(=O)C3CCCCC3)cc2C1=O`, the AC40 was 501 nM.

`CC(C)(C)c1ccc(-c2nc(-c3ccncc3)no2)cc1` was tested, and the inhibition of cAMP was 9.18% (inactive).

In the case of `C[C@H](CO)N1C[C@H](C)[C@H](CN(C)C(=O)Nc2ccc(F)cc2)OCCCC[C@H](C)Oc2ccc(NC(=O)C3CC3)cc2C1=O`, the AC40 is reported as 49600 nM.

With `C[C@H]1CCCCO[C@@H](CN(C)C(=O)Nc2cccc3ccccc23)[C@@H](C)CN([C@@H](C)CO)C(=O)c2cc(NC(=O)C3CCCCC3)ccc2O1` the AC40 was 353 nM.

In the case of `C[C@@H]1CN([C@H](C)CO)C(=O)c2cc(NC(=O)C3CCCCC3)ccc2O[C@@H](C)CCCCO[C@@H]1CN(C)C(=O)Nc1cccc2ccccc12`, the AC40 is reported as > 50000 nM (inactive).

With `C[C@@H]1CN([C@@H](C)CO)C(=O)c2cc(NC(=O)C3CCCCC3)ccc2O[C@@H](C)CCCCO[C@@H]1CN(C)C(=O)Nc1cccc2ccccc12` the inhibition of cAMP was 10.1% (inactive).

`C[C@H](CO)N1C[C@H](C)[C@H](CN(C)C(=O)Nc2ccc(F)cc2)OCCCC[C@H](C)Oc2ccc(NC(=O)C3CCC3)cc2C1=O` was tested, and the AC40 was 4980 nM.

In the case of `C[C@@H]1CN([C@H](C)CO)C(=O)c2cc(NC(=O)C3CCCCC3)ccc2O[C@@H](C)CCCCO[C@H]1CN(C)C(=O)Nc1cccc2ccccc12`, the AC40 is reported as > 50000 nM (inactive).

For `C[C@H]1CCCCO[C@H](CN(C)C(=O)Nc2cccc3ccccc23)[C@@H](C)CN([C@@H](C)CO)C(=O)c2cc(NC(=O)C3CCCCC3)ccc2O1`, the AC40 was > 50000 nM (inactive).

With `COc1ccc(S(=O)(=O)N(C)C[C@@H]2OCCCC[C@H](C)Oc3ccc(NS(=O)(=O)c4ccc(Cl)cc4)cc3C(=O)N([C@@H](C)CO)C[C@@H]2C)cc1` the inhibition of cAMP was 6.28% (inactive).

In the case of `COc1ccc(NC(=O)N(C)C[C@@H]2OCCCC[C@H](C)Oc3ccc(NC(=O)NC4CCCCC4)cc3C(=O)N([C@H](C)CO)C[C@@H]2C)cc1`, the AC40 is reported as 2040 nM.

`C[C@H](CO)N1C[C@H](C)[C@H](CN(C)C(=O)Nc2cccc3ccccc23)OCCCC[C@H](C)Oc2ccc(NC(=O)CCC(F)(F)F)cc2C1=O` gave an AC40 of 1950 nM.

In the case of `C[C@@H]1CCCCO[C@@H](CN(C)C(=O)Nc2cccc3ccccc23)[C@H](C)CN([C@H](C)CO)C(=O)c2cc(NC(=O)C3CCCCC3)ccc2O1`, the inhibition of cAMP is reported as -5.85% (inactive).

Compound `C[C@H](CO)N1C[C@H](C)[C@H](CN(C)C(=O)Nc2ccc(F)cc2)OCCCC[C@H](C)Oc2ccc(NC(=O)C3CCCC3)cc2C1=O` has an AC40 of 1750 nM.

With `C[C@H](CO)N1C[C@H](C)[C@H](CN(C)C(=O)Nc2ccc(C(F)(F)F)cc2)OCCCC[C@H](C)Oc2ccc(NC(=O)CCC(F)(F)F)cc2C1=O` the AC40 was 949 nM.
